Tests used:
[1] = molecular target: GDP-bound NRAS wild-type protein (Homo sapiens, UniProt P01111); experiment: Binding to NRAS by surface plasmon resonance (SPR), Single Cycle Kinetics; conditions: SPR, GDP-bound NRAS wild-type vs GDP-bound KRAS wild-type
[2] = molecular target: GDP-bound HRAS wild-type protein (Homo sapiens, UniProt P01112); experiment: Binding to HRAS by surface plasmon resonance (SPR), Single Cycle Kinetics; conditions: SPR, GDP-bound HRAS wild-type vs GDP-bound KRAS wild-type
GDP-bound HRAS wild-type protein, sequence (P01112 whole entry): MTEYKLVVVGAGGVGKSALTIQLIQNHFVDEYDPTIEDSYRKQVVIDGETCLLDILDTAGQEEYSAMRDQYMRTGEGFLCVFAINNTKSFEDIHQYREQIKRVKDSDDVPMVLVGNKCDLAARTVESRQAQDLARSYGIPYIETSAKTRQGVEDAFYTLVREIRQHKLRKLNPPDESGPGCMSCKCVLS

GDP-bound NRAS wild-type protein, sequence (P01111 whole entry): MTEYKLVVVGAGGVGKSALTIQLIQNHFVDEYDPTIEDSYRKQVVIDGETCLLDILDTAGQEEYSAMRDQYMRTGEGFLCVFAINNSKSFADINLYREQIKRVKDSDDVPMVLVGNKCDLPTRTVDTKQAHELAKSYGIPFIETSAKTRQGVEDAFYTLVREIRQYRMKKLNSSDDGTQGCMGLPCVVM

Structure (SMILES) | NRAS/KRAS (ratio of KD value with respect to NRAS to KD value with respect to KRAS) [1] | HRAS/KRAS (ratio of KD value with respect to HRAS to KD value with respect to KRAS) [2]
CCCOC[C@H]1C(=O)N[C@@H]([C@@H](C)CC)C(=O)N(C)CC(=O)N(C)[C@H]2C/C=C\CCN(C2=O)[C@@H](Cc2ccc(C)cc2)C(=O)N(C)CC(=O)N[C@@H](CCc2ccc(C(F)(F)F)c(OC)c2)C(=O)N2C[C@@H](C)C[C@H]2C(=O)NC2(CC(C)(C)C2)C(=O)N(C)[C@@H](C2CCCC2)C(=O)N(C)[C@H](C(=O)N(C)C)CC(=O)N1C [PP2447] | A (a compound having 10 or more and less than 20 is denoted as A) | B (a compound having 3 or more and less than 10 is denoted as B)
CCC(CC)[C@H]1C(=O)N(C)[C@H](C(=O)N(C)C)CC(=O)N(C)[C@@H](COC)C(=O)N[C@@H]([C@@H](C)CC)C(=O)N(C)CC(=O)N(C)[C@H]2C/C=C\CCN(C2=O)[C@@H](CC2CCC(F)(F)CC2)C(=O)N(C)CC(=O)N[C@@H](CCc2cc(F)c(C(F)(F)F)c(F)c2)C(=O)N2C[C@@H](C)C[C@H]2C(=O)NC2(CC(C)(C)C2)C(=O)N1C [PP2448] | A (a compound having 10 or more and less than 20 is denoted as A) | A (a compound having 10 or more and less than 20 is denoted as A)
CCCOC[C@H]1C(=O)N[C@@H]([C@@H](C)CC)C(=O)N(C)CC(=O)N(C)[C@H]2C/C=C\CCN(C2=O)[C@@H](Cc2ccc(C)cc2)C(=O)N(C)CC(=O)N[C@@H](CCc2ccc(C(F)(F)F)c(OC)c2)C(=O)N2C[C@H](OCC)C[C@H]2C(=O)NC2(CC(C)(C)C2)C(=O)N(C)[C@@H](C2CCCC2)C(=O)N(C)[C@H](C(=O)N(C)C)CC(=O)N1C [PP2449] | A (a compound having 10 or more and less than 20 is denoted as A) | A (a compound having 10 or more and less than 20 is denoted as A)
CCOC[C@H]1C(=O)N[C@@H]([C@@H](C)CC)C(=O)N(C)CC(=O)N(C)[C@H]2C/C=C\CCN(C2=O)[C@@H](CC2CCC(F)(F)CC2)C(=O)N(C)CC(=O)N[C@@H](CCc2cc(F)c(C(F)(F)F)c(F)c2)C(=O)N2C[C@H](OCC)C[C@H]2C(=O)NC2(CC(C)(C)C2)C(=O)N(C)[C@@H](C(CC)CC)C(=O)N(C)[C@H](C(=O)N(C)C)CC(=O)N1C [PP2450] | A (a compound having 10 or more and less than 20 is denoted as A) | A (a compound having 10 or more and less than 20 is denoted as A)
CCOC[C@H]1C(=O)N[C@@H]([C@@H](C)CC)C(=O)N(C)CC(=O)N(C)[C@H]2C/C=C\CCN(C2=O)[C@@H](Cc2ccc(C)cc2)C(=O)N(C)CC(=O)N[C@@H](CCc2ccc(C(F)(F)F)c(Cl)c2)C(=O)N2C[C@@H](C)C[C@H]2C(=O)NC2(CC(C)(C)C2)C(=O)N(C)[C@@H](C2CCCC2)C(=O)N(C)[C@H](C(=O)N(C)CC)CC(=O)N1C [PP2451] | A (a compound having 10 or more and less than 20 is denoted as A) | A (a compound having 10 or more and less than 20 is denoted as A)
CCO[C@@H]1C[C@H]2C(=O)NC3(CC(C)(C)C3)C(=O)N(C)[C@@H](C(CC)CC)C(=O)N(C)[C@H](C(=O)N(C)C)CC(=O)N(C)[C@@H](COC)C(=O)N[C@@H]([C@@H](C)CC)C(=O)N(C)CC(=O)N(C)[C@H]3C/C=C\CCN(C3=O)[C@@H](CC3CCCCC3)C(=O)N(C)CC(=O)N[C@@H](CCc3ccc(C(F)(F)F)c(OC)c3)C(=O)N2C1 [PP2452] | A (a compound having 10 or more and less than 20 is denoted as A) | A (a compound having 10 or more and less than 20 is denoted as A)
CCCOC[C@H]1C(=O)N[C@@H]([C@@H](C)CC)C(=O)N(C)CC(=O)N(C)[C@H]2C/C=C\CCN(C2=O)[C@@H](Cc2ccc(C)cc2)C(=O)N(C)CC(=O)N[C@@H](CCc2ccc(C(F)(F)F)c(Cl)c2)C(=O)N2C[C@@H](C)C[C@H]2C(=O)NC2(CC(C)(C)C2)C(=O)N(C)[C@@H](C2CCCC2)C(=O)N(C)[C@H](C(=O)N(C)C)CC(=O)N1C [PP2453] | A (a compound having 10 or more and less than 20 is denoted as A) | A (a compound having 10 or more and less than 20 is denoted as A)
CCC(CC)[C@H]1C(=O)N(C)[C@H](C(=O)N(C)C)CC(=O)N(C)[C@@H](COC)C(=O)N[C@@H]([C@@H](C)CC)C(=O)N(C)CC(=O)N(C)[C@H]2C/C=C\CCN(C2=O)[C@@H](CC2CCC(F)(F)CC2)C(=O)N(C)CC(=O)N[C@@H](CCc2ccc(C(F)(F)F)c(Cl)c2)C(=O)N2C[C@@H](C)C[C@H]2C(=O)NC2(CC(C)(C)C2)C(=O)N1C [PP2454] | AA (a compound having 20 or more is denoted as AA) | A (a compound having 10 or more and less than 20 is denoted as A)
CC[C@H](C)[C@@H]1NC(=O)[C@H](COC)N(C)C(=O)C[C@@H](C(=O)N(CC)CC)N(C)C(=O)[C@H](C2CCCC2)N(C)C(=O)C2(CC(C)(C)C2)NC(=O)[C@@H]2C[C@H](C)CN2C(=O)[C@H](CCc2cc(F)c(C(F)(F)F)c(F)c2)NC(=O)CN(C)C(=O)[C@H](Cc2ccc(C)cc2)N2CC/C=C\C[C@@H](C2=O)N(C)C(=O)CN(C)C1=O [PP2455] | AA (a compound having 20 or more is denoted as AA) | A (a compound having 10 or more and less than 20 is denoted as A)
CCO[C@@H]1C[C@H]2C(=O)NC3(CC(C)(C)C3)C(=O)N(C)[C@@H](C(CC)CC)C(=O)N(C)[C@H](C(=O)N(C)C)CC(=O)N(C)[C@@H](COC)C(=O)N[C@@H]([C@@H](C)CC)C(=O)N(C)CC(=O)N(C)[C@H]3C/C=C\CCN(C3=O)[C@@H](CC3CCCCC3)C(=O)N(C)CC(=O)N[C@@H](CCc3cc(F)c(C(F)(F)F)c(F)c3)C(=O)N2C1 [PP2456] | A (a compound having 10 or more and less than 20 is denoted as A) | A (a compound having 10 or more and less than 20 is denoted as A)
CCOC[C@H]1C(=O)N[C@@H]([C@@H](C)CC)C(=O)N(C)CC(=O)N(C)[C@H]2C/C=C\CCN(C2=O)[C@@H](Cc2ccc(C)cc2)C(=O)N(C)CC(=O)N[C@@H](CCc2cc(F)c(C(F)(F)F)c(F)c2)C(=O)N2C[C@@H](C)C[C@H]2C(=O)NC2(CC(C)(C)C2)C(=O)N(C)[C@@H](C2CCCC2)C(=O)N(C)[C@H](C(=O)N(C)CC)CC(=O)N1C [PP2457] | A (a compound having 10 or more and less than 20 is denoted as A) | A (a compound having 10 or more and less than 20 is denoted as A)

Source: US20250230193A1, “CYCLIC COMPOUND HAVING SELECTIVE KRAS INHIBITORY EFFECT ON HRAS AND NRAS” (CHUGAI SEIYAKU KABUSHIKI KAISHA, priority 2022, published 2025)
